Among the data in ChEMBL document CHEMBL4823257, “Penitol A and Penicitols E-I: Citrinin Derivatives from Penicillium citrinum and the Structure Revision of Previously Proposed Analogues” (J Nat Prod, 2021) are IC50 and MIC values, retold here.

In brackets after ≈: the same amount, converted by molar mass.

As usually defined, the IC50 is the concentration needed to halve the response being measured. A high value points to weaker potency. For orientation: MIC means the least concentration at which growth counts as inhibited. Higher therefore signals a less susceptible organism.

One experiment relates to Bel-7402. The experiment is described as follows: Cytotoxicity against human Bel-7402 cells by SRB assay. The experiment is classed as functional, cell-based. In general terms: Sulforhodamine B stains cellular protein and so reports cell mass.
Another experiment has as its system MCF7. Briefly: Cytotoxicity against human MCF7 cells by SRB assay. It is filed as functional, cell-based.
In the next experiment the test system is L02. Briefly: Cytotoxicity against human L02 cells by SRB assay. It is filed as functional, cell-based.
Another experiment deals with HL-60. Briefly: Cytotoxicity against human HL-60 cells by MTT assay. The experiment is classed as functional, cell-based. On the technique in general: Tetrazolium dyes change colour on reduction, which living cells bring about.
The test system of a further experiment is A549. Briefly: Cytotoxicity against human A549 cells by SRB assay. It is filed as functional, cell-based.
For another experiment, the system named is MDA-MB-231. The experiment is described as follows: Cytotoxicity against human MDA-MB-231 cells by SRB assay. The experiment is classed as functional, cell-based.
The next experiment deals with K562. Briefly: Cytotoxicity against human K562 cells by MTT assay. It is filed as functional, cell-based.
A further experiment deals with HCT-116. The experiment is described as follows: Cytotoxicity against human HCT-116 cells by SRB assay. The experiment is classed as functional, cell-based.
The subject of a further experiment is Bacillus subtilis. Briefly: Antibacterial activity against Bacillus subtilis ATCC 6051. The experiment is classed as functional.
The next experiment deals with Klebsiella pneumoniae. Briefly: Antibacterial activity against Klebsiella pneumoniae WNX-1. It is filed as functional.
Another experiment deals with Pseudomonas aeruginosa. The experiment is described as follows: Antibacterial activity against Pseudomonas aeruginosa 14. It is filed as functional.
The next experiment has as its system Enterococcus faecalis. Briefly: Antibacterial activity against Vancomycin resistant Enterococcus faecalis 1010798. It is filed as functional.
The subject of the next experiment is Staphylococcus aureus. Briefly: Antibacterial activity against Staphylococcus aureus ATCC 29213. The experiment is classed as functional.
The next experiment relates to Escherichia coli. Briefly: Antibacterial activity against Escherichia coli ATCC 25922. The experiment is classed as functional.

Regarding `COc1cccc2c1C(=O)c1c(O)c3c(c(O)c1C2=O)C[C@@](O)(C(=O)CO)C[C@@H]3O[C@H]1C[C@H](N)[C@H](O)[C@H](C)O1` [DOXORUBICIN], the 50% inhibitory concentration (IC50) in the experiment on Bel-7402, in the experiment with MCF7, in the experiment with L02, in the experiment with HL-60, in the experiment on A549 and in the experiment with MDA-MB-231 was less than 1 µM each time. Moreover, the IC50 with K562 and in the experiment on HCT-116 was less than 1 µM throughout.

Consider `Cc1c(O)cc2c3c1[C@H](C)[C@@H](C)O[C@H]3[C@H]1CCCC[C@@]1(O)O2`, for which the minimum inhibitory concentration (MIC) against Bacillus subtilis, in the experiment with Klebsiella pneumoniae, against Pseudomonas aeruginosa, against Enterococcus faecalis, against Staphylococcus aureus and against Escherichia coli was more than 64 µg/mL each time. Further, the IC50 with L02, in the experiment on MDA-MB-231 and in the experiment with K562 was more than 30 µM throughout.

Take `C/C=C/[C@@H]1C=C[C@@H]2C[C@H](C)CC[C@H]2[C@]1(C)/C(O)=C1/C(=O)[C@H](CO)N(C)C1=O`: the minimal inhibitory concentration (MIC) against Bacillus subtilis turned out to be 1 µg/mL (≈ 2.68 µM); with Enterococcus faecalis, 2 µg/mL (≈ 5.35 µM); in the experiment with Staphylococcus aureus, 2 µg/mL (≈ 5.35 µM).

As for `Cc1c(O)cc2c3c1[C@H](C)[C@@H](C)O[C@@H]3[C@H]1CCCC[C@]1(O)O2`, the MIC against Bacillus subtilis, against Klebsiella pneumoniae, against Pseudomonas aeruginosa, against Enterococcus faecalis, in the experiment on Staphylococcus aureus and in the experiment on Escherichia coli was more than 64 µg/mL throughout. Besides, the IC50 with Bel-7402, in the experiment on MCF7, in the experiment with L02, in the experiment with HL-60, with A549 and with MDA-MB-231 was more than 30 µM in each case. Besides, the half-inhibitory concentration (IC50) in the experiment on K562 and with HCT-116 was more than 30 µM throughout.

On to `CO[C@]12CCCC[C@@H]1[C@H]1O[C@H](C)[C@@H](C)c3c(C)c(O)cc(c31)O2`, for which the MIC against Bacillus subtilis, in the experiment on Klebsiella pneumoniae, against Pseudomonas aeruginosa, in the experiment with Enterococcus faecalis, in the experiment with Staphylococcus aureus and against Escherichia coli was more than 64 µg/mL in each case. In addition, the concentration for half-maximal inhibition (IC50) in the experiment with Bel-7402 is 17 µM; with MCF7, more than 30 µM; in the experiment with L02, more than 30 µM; in the experiment on HL-60, more than 30 µM; in the experiment with A549, 19 µM; with MDA-MB-231, more than 30 µM. Further, the concentration for half-maximal inhibition (IC50) in the experiment on K562 and with HCT-116 was more than 30 µM throughout.

Take COLISTIN: the MIC against Klebsiella pneumoniae amounted to 0.5 µg/mL; in the experiment on Pseudomonas aeruginosa, 0.3 µg/mL; in the experiment with Escherichia coli it was 0.5 µg/mL.

In the case of `Cc1c(O)cc(O)c2c1[C@H](C)[C@@H](C)OC21CCCCC1`, the MIC against Bacillus subtilis is 32 µg/mL (≈ 116 µM); against Klebsiella pneumoniae, more than 64 µg/mL; in the experiment on Pseudomonas aeruginosa, more than 64 µg/mL; in the experiment on Enterococcus faecalis it was 32 µg/mL (≈ 116 µM); in the experiment on Staphylococcus aureus it was 16 µg/mL (≈ 57.9 µM); in the experiment on Escherichia coli it was more than 64 µg/mL. The 50% inhibitory concentration (IC50) in the experiment on Bel-7402 is 12 µM; in the experiment with MCF7, 15 µM; with L02, more than 30 µM; in the experiment with HL-60, 20 µM; with A549, 28 µM; in the experiment with MDA-MB-231 it was 26 µM. Moreover, the values for the IC50 in the experiment on K562 and in the experiment with HCT-116 were 8.8 µM and 24 µM, respectively.

As for `CO[C@@]12CCCC[C@H]1[C@@H]1O[C@H](C)[C@@H](C)c3c(C)c(O)cc(c31)O2`, the MIC is 32 µg/mL (≈ 100 µM) against Bacillus subtilis; more than 64 µg/mL with Klebsiella pneumoniae; more than 64 µg/mL against Pseudomonas aeruginosa; 32 µg/mL (≈ 100 µM) against Enterococcus faecalis; 64 µg/mL (≈ 201 µM) against Staphylococcus aureus; more than 64 µg/mL in the experiment on Escherichia coli. Moreover, the IC50 in the experiment on Bel-7402, in the experiment on MCF7, in the experiment with L02, in the experiment with HL-60, with A549 and in the experiment on MDA-MB-231 was more than 30 µM in each case. Moreover, the IC50 in the experiment on K562 is 26 µM; in the experiment with HCT-116, more than 30 µM.

Turning to `Cc1c(O)cc2c3c1[C@H](C)[C@@H](C)O[C@@H]3[C@@H]1CCCC[C@]1(O)O2`, the MIC in the experiment with Bacillus subtilis, in the experiment on Klebsiella pneumoniae, against Pseudomonas aeruginosa, against Enterococcus faecalis, against Staphylococcus aureus and with Escherichia coli was more than 64 µg/mL throughout. Besides, the IC50 in the experiment with Bel-7402, in the experiment with MCF7, in the experiment on L02, with HL-60, in the experiment on A549 and in the experiment on MDA-MB-231 was more than 30 µM each time. The 50% inhibitory concentration (IC50) in the experiment with K562 and in the experiment with HCT-116 was more than 30 µM throughout.

Consider `Cc1c(O)cc2c3c1[C@H](C)[C@@H](C)O[C@H]3[C@@H]1CCCC[C@@]1(O)O2`, for which the MIC with Bacillus subtilis, in the experiment on Klebsiella pneumoniae, against Pseudomonas aeruginosa, against Enterococcus faecalis, against Staphylococcus aureus and against Escherichia coli was more than 64 µg/mL in each case. Besides, the IC50 in the experiment with Bel-7402, with MCF7, with L02, in the experiment on HL-60, in the experiment on A549 and in the experiment on MDA-MB-231 was more than 30 µM throughout. Moreover, the IC50 in the experiment with K562 and with HCT-116 was more than 30 µM in each case.
